{"source": "patent US20170112940A1", "about": "“Modified Collagen Hybridizing Peptides And Uses Thereof” (University of Utah Research Foundation, priority 2015, published 2017)", "key": {"[1]": {"assay": "Melting temperature (melting curve) of the peptides in 1× PBS", "type": "physicochemical", "settings": "FIG. 1", "description": "The sample concentration tested is 200 uM. 7 is Ac-GPO-GPO-GPO-GPO-GPO-GPO-GPO (This is positive control). 7-1azGly is Ac-GPO-GPO-GPO-azGlyPO-GPO-GPO-GPO. 7-2azGly is Ac-GPO-GPO-azGlyPO-GPO-azGlyPO-GPO-GPO. Melting Temperature of 7 is 54° C. Melting Temperature of 7-1azGly is 65° C. Melting Temperature of 7-2azGly is 77° C."}, "gelatin": {"system": "gelatin", "assay": "Gelatin binding: peptide remaining on crosslinked gelatin film after binding and washing", "settings": "FIG. 3", "description": "10: 10 μM added to crosslinked gelatin gel. […] 7 is CF-GGG-GPO-GPO-GPO-GPO-GPO-GPO-GPO (positive control). […] 7-2azGly is CF-GGG-GPO-GPO-azGlyPO-GPO-azGlyPO-GPO-GPO. Random9 is Scramble sequence of CF-GGG-(GPO)9 The sequence is CF-GGG-PGO-GPG-POP-OGO-GOP-PGO-OPG-GOO-PPG. (negative control)."}, "Denatured Collagen": {"system": "Denatured Collagen", "assay": "Fluorescent staining of SDS-PAGE, denatured collagen lanes", "type": "binding", "settings": "SDS-PAGE stained with 35 μM peptide, 5 ug and 10 ug denatured collagen (lanes 3 and 4), FIG. 4", "description": "(§1) FIGS. 4A and 4B show A) Fluorescent image of SDS-PAGE stained with 35 μM of CFG3(GPO)3AzGPO(GPO)3; B) SDS-PAGE stained with Commassie Blue. Lane 1: MW marker, Lane 2: 50 ug BSA, Lane 3: 5 ug Denatured Collagen (col), Lane 4: 10 ug Denatured Collagen (col). Commasie blue (4B) stains collagen (Lanes 3 and 4) as well as BSA (lane 2)."}, "BSA": {"molecular_target": "BSA (Bos taurus, UniProt P02769)", "sequence (P02769 25-607)": "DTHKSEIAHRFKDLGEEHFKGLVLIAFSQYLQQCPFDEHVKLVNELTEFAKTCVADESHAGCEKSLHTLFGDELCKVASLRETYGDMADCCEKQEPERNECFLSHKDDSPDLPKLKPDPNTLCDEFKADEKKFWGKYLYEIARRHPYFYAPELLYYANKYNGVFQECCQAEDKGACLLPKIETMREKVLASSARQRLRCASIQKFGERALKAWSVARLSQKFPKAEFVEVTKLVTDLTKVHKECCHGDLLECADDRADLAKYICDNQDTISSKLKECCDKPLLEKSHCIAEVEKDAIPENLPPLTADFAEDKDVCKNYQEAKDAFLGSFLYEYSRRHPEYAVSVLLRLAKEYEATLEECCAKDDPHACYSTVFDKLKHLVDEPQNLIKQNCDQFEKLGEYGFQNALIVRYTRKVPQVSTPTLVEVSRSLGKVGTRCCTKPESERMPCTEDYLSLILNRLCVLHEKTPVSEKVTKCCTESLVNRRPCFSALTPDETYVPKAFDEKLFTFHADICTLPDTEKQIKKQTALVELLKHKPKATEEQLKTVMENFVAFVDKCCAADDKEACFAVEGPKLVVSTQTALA", "assay": "Fluorescent staining of SDS-PAGE, BSA lane", "type": "binding", "settings": "SDS-PAGE stained with 35 μM peptide, 50 ug BSA (lane 2), FIG. 4", "description": "as §1"}, "[2]": {"settings": "listed as CFG3(GPO)3AzGPO(GPO)3"}}, "data": [{"substance": "Ac-GPO-GPO-azGlyPO-GPO-azGlyPO-GPO-GPO [7-2azGly]", "values": [{"measurement": "triple helical structure indicated by sigmoidal shape of the melting curve", "setting": "[1]", "result": "has triple helical structure"}]}, {"substance": "CF-GGG-GPO-GPO-GPO-azGlyPO-GPO-GPO-GPO [7-1azGly]", "values": [{"measurement": "binding affinity to gelatin (comparison in words)", "setting": "gelatin", "result": "much higher than GPO7"}, {"measurement": "staining of / binding to denatured collagen", "setting": "Denatured Collagen; listed as Aza-CHP", "result": "binds to denatured collagen"}, {"measurement": "staining of / binding to denatured collagen", "setting": "Denatured Collagen; [2]", "result": "stains only collagen"}, {"measurement": "staining of / binding to denatured BSA", "setting": "BSA; listed as Aza-CHP", "result": "does not bind to denatured BSA"}, {"measurement": "staining of / binding to denatured BSA", "setting": "BSA; [2]", "result": "almost no signal from lane 2"}]}, {"substance": "CF-GGG-GPO-GPO-azGlyPO-GPO-azGlyPO-GPO-GPO [7-2azGly]", "values": [{"measurement": "binding affinity to gelatin (comparison in words)", "setting": "gelatin", "result": "further increases the binding affinity to gelatin"}]}, {"substance": "Ac-GPO-GPO-GPO-azGlyPO-GPO-GPO-GPO [7-1azGly]", "values": [{"measurement": "triple helical structure indicated by sigmoidal shape of the melting curve", "setting": "[1]", "result": "has triple helical structure"}]}]}
